{"source": "PubChem BioAssay (NCI)", "note": "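Cells were grown in 96-well plates and exposed to each compound for 48 hours at five concentrations; endpoints were interpolated linearly between bracketing concentrations, or set to the highest concentration if not reached. GI50 = concentration required for 50% inhibition of growth. Definition used: TGI = concentration required for complete inhibition of growth.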", "data": [{"tested_on": "SK-MEL-28 melanoma", "test": "growth of human tumour cells (NCI), 48 h", "units": {"TGI": "µM", "GI50": "µM"}, "values": [{"compound": "C[C@@]1(O)CC[C@]2(C)C3CCCC3[C@H]12", "note": "(stereo partly drawn)", "TGI": "> 100"}, {"compound": "CCOC(=O)C1=C(C)N(NC(=O)Nc2ccccc2)C2(N)N(NC(=O)Nc3ccccc3)C(C)=C(C(=O)OCC)C12C(=O)OCC", "note": "(stereo not drawn)", "TGI": "> 100"}, {"compound": "O=C(O)CSc1n[nH]c(-c2ccccc2O)n1", "TGI": "> 100"}, {"compound": "CCOc1ccc(NC2=CC(=O)C(=O)c3ccccc32)cc1", "TGI": 7.22}, {"compound": "O=C1c2ccccc2C(=O)c2c(/C=C\\N3CCCCC3)ccnc21", "TGI": 2.96}, {"compound": "Cc1ccc(S(=O)(=O)N2CCC2c2ccccc2)cc1", "note": "(stereo not drawn)", "TGI": "> 100"}, {"compound": "CCCOc1nc(N)c2cnn(C3CCCCO3)c2n1", "note": "(stereo not drawn)", "TGI": "> 100"}, {"compound": "COc1ccc(/C=C/COC(C)=O)cc1OC", "TGI": "> 100"}, {"compound": "[O-][Cl+3]([O-])([O-])[O-].[O]=[Ru]=[O].c1ccc(-c2ccccn2)nc1.c1ccc(-c2ccccn2)nc1", "GI50": 92.1, "TGI": "> 100"}, {"compound": "COc1cc2c(cc1OC)C(Cl)C(c1ccc(F)cc1)=C2Cl", "note": "(stereo not drawn)", "TGI": 33.3}, {"compound": "O=C1C(C(Nc2ccccc2)c2ccccc2)=C([O-])c2ccccc21.O=C1C(C(Nc2ccccc2)c2ccccc2)=C([O-])c2ccccc21.[Cu+2]", "note": "(stereo not drawn)", "GI50": "> 100", "TGI": "> 100"}, {"compound": "CN(C)CC1CCC/C1=N/OC(=O)c1ccccc1", "note": "(stereo not drawn)", "TGI": "> 100"}, {"compound": "CCC(C)SC1SCC2C(=O)N(C)C3(CC3C)C(=O)OCC(NC(=O)c3nc4ccccc4cc3O)C(=O)NC(C)C(=O)N(C)C1C(=O)N(C)C1(CC1C)C(=O)OCC(NC(=O)c1nc3ccccc3cc1O)C(=O)NC(C)C(=O)N2C", "note": "(stereo not drawn)", "GI50": "3.02e-05", "TGI": 0.000138}, {"compound": "CC1(C)CC(c2c[nH]c3ccccc23)=CC2=Nc3ccccc3C21O", "note": "(stereo not drawn)", "TGI": 77.7}, {"compound": "CN1C(=O)C(=O)N2c3ccc(Cl)cc3C3(c4ccccc4)N=CC12O3", "note": "(stereo not drawn)", "TGI": 12.1}]}, {"tested_on": "SNB-75 CNS", "test": "growth of human tumour cells (NCI), 48 h", "units": {"TGI": "µM", "GI50": "µM"}, "values": [{"compound": "C[C@@]1(O)CC[C@]2(C)C3CCCC3[C@H]12", "note": "(stereo partly drawn)", "TGI": "> 100"}, {"compound": "CCOC(=O)C1=C(C)N(NC(=O)Nc2ccccc2)C2(N)N(NC(=O)Nc3ccccc3)C(C)=C(C(=O)OCC)C12C(=O)OCC", "note": "(stereo not drawn)", "TGI": 98.1}, {"compound": "O=C(O)CSc1n[nH]c(-c2ccccc2O)n1", "TGI": "> 100"}, {"compound": "CCOc1ccc(NC2=CC(=O)C(=O)c3ccccc32)cc1", "TGI": 5.35}, {"compound": "O=C1c2ccccc2C(=O)c2c(/C=C\\N3CCCCC3)ccnc21", "TGI": 7.2}, {"compound": "Cc1ccc(S(=O)(=O)N2CCC2c2ccccc2)cc1", "note": "(stereo not drawn)", "TGI": "> 100"}, {"compound": "CCCOc1nc(N)c2cnn(C3CCCCO3)c2n1", "note": "(stereo not drawn)", "TGI": "> 100"}, {"compound": "C/C(CN1C(=O)c2ccccc2C1=O)=N\\NS(=O)(=O)c1ccc(Cl)cc1", "TGI": "> 100"}, {"compound": "COc1ccc(/C=C/COC(C)=O)cc1OC", "TGI": "> 100"}, {"compound": "[O-][Cl+3]([O-])([O-])[O-].[O]=[Ru]=[O].c1ccc(-c2ccccn2)nc1.c1ccc(-c2ccccn2)nc1", "GI50": 40.9, "TGI": "> 100"}, {"compound": "COc1cc2c(cc1OC)C(Cl)C(c1ccc(F)cc1)=C2Cl", "note": "(stereo not drawn)", "TGI": 29.1}, {"compound": "O=C1C(C(Nc2ccccc2)c2ccccc2)=C([O-])c2ccccc21.O=C1C(C(Nc2ccccc2)c2ccccc2)=C([O-])c2ccccc21.[Cu+2]", "note": "(stereo not drawn)", "GI50": 17.2, "TGI": 92.1}, {"compound": "CN(C)CC1CCC/C1=N/OC(=O)c1ccccc1", "note": "(stereo not drawn)", "TGI": "> 100"}, {"compound": "CCC(C)SC1SCC2C(=O)N(C)C3(CC3C)C(=O)OCC(NC(=O)c3nc4ccccc4cc3O)C(=O)NC(C)C(=O)N(C)C1C(=O)N(C)C1(CC1C)C(=O)OCC(NC(=O)c1nc3ccccc3cc1O)C(=O)NC(C)C(=O)N2C", "note": "(stereo not drawn)", "TGI": "8.3e-05"}, {"compound": "CC1(C)CC(c2c[nH]c3ccccc23)=CC2=Nc3ccccc3C21O", "note": "(stereo not drawn)", "TGI": 25.4}, {"compound": "CN1C(=O)C(=O)N2c3ccc(Cl)cc3C3(c4ccccc4)N=CC12O3", "note": "(stereo not drawn)", "TGI": 24.3}]}, {"tested_on": "SNB-78 CNS", "test": "growth of human tumour cells (NCI), 48 h", "units": {"TGI": "µM", "GI50": "µM"}, "values": [{"compound": "C[C@@]1(O)CC[C@]2(C)C3CCCC3[C@H]12", "note": "(stereo partly drawn)", "TGI": "> 100"}, {"compound": "CCOC(=O)C1=C(C)N(NC(=O)Nc2ccccc2)C2(N)N(NC(=O)Nc3ccccc3)C(C)=C(C(=O)OCC)C12C(=O)OCC", "note": "(stereo not drawn)", "TGI": "> 100"}, {"compound": "O=C(O)CSc1n[nH]c(-c2ccccc2O)n1", "TGI": "> 100"}, {"compound": "CCOc1ccc(NC2=CC(=O)C(=O)c3ccccc32)cc1", "TGI": 39.5}, {"compound": "O=C1c2ccccc2C(=O)c2c(/C=C\\N3CCCCC3)ccnc21", "TGI": 61.8}, {"compound": "Cc1ccc(S(=O)(=O)N2CCC2c2ccccc2)cc1", "note": "(stereo not drawn)", "TGI": "> 100"}, {"compound": "CCCOc1nc(N)c2cnn(C3CCCCO3)c2n1", "note": "(stereo not drawn)", "TGI": "> 100"}, {"compound": "C/C(CN1C(=O)c2ccccc2C1=O)=N\\NS(=O)(=O)c1ccc(Cl)cc1", "TGI": "> 100"}, {"compound": "COc1ccc(/C=C/COC(C)=O)cc1OC", "TGI": "> 100"}, {"compound": "[O-][Cl+3]([O-])([O-])[O-].[O]=[Ru]=[O].c1ccc(-c2ccccn2)nc1.c1ccc(-c2ccccn2)nc1", "GI50": "> 100", "TGI": "> 100"}, {"compound": "COc1cc2c(cc1OC)C(Cl)C(c1ccc(F)cc1)=C2Cl", "note": "(stereo not drawn)", "TGI": 68.6}, {"compound": "O=C1C(C(Nc2ccccc2)c2ccccc2)=C([O-])c2ccccc21.O=C1C(C(Nc2ccccc2)c2ccccc2)=C([O-])c2ccccc21.[Cu+2]", "note": "(stereo not drawn)", "GI50": 84.6, "TGI": "> 100"}, {"compound": "CN(C)CC1CCC/C1=N/OC(=O)c1ccccc1", "note": "(stereo not drawn)", "TGI": "> 100"}, {"compound": "CCC(C)SC1SCC2C(=O)N(C)C3(CC3C)C(=O)OCC(NC(=O)c3nc4ccccc4cc3O)C(=O)NC(C)C(=O)N(C)C1C(=O)N(C)C1(CC1C)C(=O)OCC(NC(=O)c1nc3ccccc3cc1O)C(=O)NC(C)C(=O)N2C", "note": "(stereo not drawn)", "TGI": 0.255}, {"compound": "CC1(C)CC(c2c[nH]c3ccccc23)=CC2=Nc3ccccc3C21O", "note": "(stereo not drawn)", "TGI": "> 100"}, {"compound": "CN1C(=O)C(=O)N2c3ccc(Cl)cc3C3(c4ccccc4)N=CC12O3", "note": "(stereo not drawn)", "TGI": 33.8}]}, {"tested_on": "SR leukemia", "test": "growth of human tumour cells (NCI), 48 h", "units": {"TGI": "µM", "GI50": "µM"}, "values": [{"compound": "C[C@@]1(O)CC[C@]2(C)C3CCCC3[C@H]12", "note": "(stereo partly drawn)", "TGI": "> 100"}, {"compound": "CCOC(=O)C1=C(C)N(NC(=O)Nc2ccccc2)C2(N)N(NC(=O)Nc3ccccc3)C(C)=C(C(=O)OCC)C12C(=O)OCC", "note": "(stereo not drawn)", "TGI": "> 100"}, {"compound": "O=C(O)CSc1n[nH]c(-c2ccccc2O)n1", "TGI": "> 100"}, {"compound": "CCOc1ccc(NC2=CC(=O)C(=O)c3ccccc32)cc1", "TGI": 17.6}, {"compound": "O=C1c2ccccc2C(=O)c2c(/C=C\\N3CCCCC3)ccnc21", "TGI": 35.9}, {"compound": "CCCOc1nc(N)c2cnn(C3CCCCO3)c2n1", "note": "(stereo not drawn)", "TGI": "> 100"}, {"compound": "C/C(CN1C(=O)c2ccccc2C1=O)=N\\NS(=O)(=O)c1ccc(Cl)cc1", "TGI": "> 100"}, {"compound": "COc1ccc(/C=C/COC(C)=O)cc1OC", "TGI": "> 100"}, {"compound": "[O-][Cl+3]([O-])([O-])[O-].[O]=[Ru]=[O].c1ccc(-c2ccccn2)nc1.c1ccc(-c2ccccn2)nc1", "GI50": 4.07, "TGI": 34.7}, {"compound": "COc1cc2c(cc1OC)C(Cl)C(c1ccc(F)cc1)=C2Cl", "note": "(stereo not drawn)", "TGI": 14.3}, {"compound": "O=C1C(C(Nc2ccccc2)c2ccccc2)=C([O-])c2ccccc21.O=C1C(C(Nc2ccccc2)c2ccccc2)=C([O-])c2ccccc21.[Cu+2]", "note": "(stereo not drawn)", "GI50": 42.2, "TGI": "> 100"}, {"compound": "CN(C)CC1CCC/C1=N/OC(=O)c1ccccc1", "note": "(stereo not drawn)", "TGI": "> 100"}]}, {"tested_on": "TK-10 renal", "test": "growth of human tumour cells (NCI), 48 h", "units": {"TGI": "µM", "GI50": "µM"}, "values": [{"compound": "C[C@@]1(O)CC[C@]2(C)C3CCCC3[C@H]12", "note": "(stereo partly drawn)", "TGI": "> 100"}, {"compound": "CCOC(=O)C1=C(C)N(NC(=O)Nc2ccccc2)C2(N)N(NC(=O)Nc3ccccc3)C(C)=C(C(=O)OCC)C12C(=O)OCC", "note": "(stereo not drawn)", "TGI": "> 100"}, {"compound": "O=C(O)CSc1n[nH]c(-c2ccccc2O)n1", "TGI": "> 100"}, {"compound": "CCOc1ccc(NC2=CC(=O)C(=O)c3ccccc32)cc1", "TGI": 21.6}, {"compound": "O=C1c2ccccc2C(=O)c2c(/C=C\\N3CCCCC3)ccnc21", "TGI": 34.4}, {"compound": "Cc1ccc(S(=O)(=O)N2CCC2c2ccccc2)cc1", "note": "(stereo not drawn)", "TGI": "> 100"}, {"compound": "C/C(CN1C(=O)c2ccccc2C1=O)=N\\NS(=O)(=O)c1ccc(Cl)cc1", "TGI": "> 100"}, {"compound": "COc1ccc(/C=C/COC(C)=O)cc1OC", "TGI": "> 100"}, {"compound": "COc1cc2c(cc1OC)C(Cl)C(c1ccc(F)cc1)=C2Cl", "note": "(stereo not drawn)", "TGI": 28.5}, {"compound": "O=C1C(C(Nc2ccccc2)c2ccccc2)=C([O-])c2ccccc21.O=C1C(C(Nc2ccccc2)c2ccccc2)=C([O-])c2ccccc21.[Cu+2]", "note": "(stereo not drawn)", "GI50": "> 100", "TGI": "> 100"}, {"compound": "CN(C)CC1CCC/C1=N/OC(=O)c1ccccc1", "note": "(stereo not drawn)", "TGI": "> 100"}, {"compound": "CCC(C)SC1SCC2C(=O)N(C)C3(CC3C)C(=O)OCC(NC(=O)c3nc4ccccc4cc3O)C(=O)NC(C)C(=O)N(C)C1C(=O)N(C)C1(CC1C)C(=O)OCC(NC(=O)c1nc3ccccc3cc1O)C(=O)NC(C)C(=O)N2C", "note": "(stereo not drawn)", "GI50": 0.000654}, {"compound": "CC1(C)CC(c2c[nH]c3ccccc23)=CC2=Nc3ccccc3C21O", "note": "(stereo not drawn)", "TGI": "> 100"}, {"compound": "CN1C(=O)C(=O)N2c3ccc(Cl)cc3C3(c4ccccc4)N=CC12O3", "note": "(stereo not drawn)", "TGI": 18.1}]}]}
